The results in this text go back to BindingDB's records for patent US20240199630 (CNIO, 2024).

Each structure is given as a SMILES string.

This assay deals with Serine/threonine-protein kinase pim-1 (Homo sapiens, UniProt P11309).
Sequence of Serine/threonine-protein kinase pim-1 (P11309 whole entry): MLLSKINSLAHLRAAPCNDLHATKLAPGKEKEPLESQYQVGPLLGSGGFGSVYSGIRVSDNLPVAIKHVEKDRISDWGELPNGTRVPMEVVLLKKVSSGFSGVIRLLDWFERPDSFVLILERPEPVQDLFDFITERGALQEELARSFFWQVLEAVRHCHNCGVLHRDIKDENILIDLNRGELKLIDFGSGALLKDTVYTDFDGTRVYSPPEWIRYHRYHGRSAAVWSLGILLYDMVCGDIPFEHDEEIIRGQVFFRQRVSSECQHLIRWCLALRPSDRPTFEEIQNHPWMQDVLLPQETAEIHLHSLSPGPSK

Usually IC50 stands for the point on the concentration scale where inhibition reaches its midpoint. Low readings indicate greater potency, high ones weaker potency. The compound `CN(CC1CCNCC1)c1nn2c(-c3ccnc(C(F)(F)F)c3)cnc2c2c1N(C)CCO2` [US20240199630, Compound T4.1] came in with an IC50 of 0.9 nM.
Next, `CNCC1CCN(c2nn3c(-c4ccnc(C(F)(F)F)c4)cnc3c3c2N(C)CCO3)CC1` [US20240199630, Compound T4.2]: 5.5 nM; `CN1CCOc2c1c(N1CCC3(CCCNC3)CC1)nn1c(-c3ccnc(C(F)(F)F)c3)cnc21` [US20240199630, Compound T4.6]: 8.3 nM; `CN1CCOc2c1c(N1CCCC3(CCNCC3)C1)nn1c(-c3ccnc(C(F)(F)F)c3)cnc21` [US20240199630, Compound T4.7]: 1.1 nM.
Then `CN1CCOc2c1c(NC1CC3(CCNCC3)C1)nn1c(-c3ccnc(C(F)(F)F)c3)cnc21` [US20240199630, Compound T4.8], with 2 nM.
Next, `CN1CCOc2c1c(N1CCC3(CC1)CC(N)C3)nn1c(-c3ccnc(C(F)(F)F)c3)cnc21` [US20240199630, Compound T4.9]: 0.8 nM.
